Laboratory results taken from US20040071656A1, “Modulation of heat-shock-protein-based immunotherapies” (priority 2001, published 2004).
Values belong to the substance of their own block, whether it stands above or below them. No end group written: not given here. *: point of attachment. FITC = O=C1OC2(c3ccc(O)cc3Oc3cc(O)ccc32)c2ccc(NC(=S)*)cc21

Experiments:
human CD40 [1] = molecular target: T1, human CD40 (Homo sapiens, UniProt P25942); test: Uptake of peptide C-FITC in HEK293T-CD40 cells, confocal microscopy; type: cell-based; conditions: 0.5 μM protein, 5 μM peptide C-FITC, ADP, 30 min 0° C. then 15 min 37° C.
T1 construct: CD40 full-length cDNA was cloned by PCR; expressed in transfected cells
Procedure: For experiments to study uptake of Hsp70/peptide C-FITC complex, HEK293T-CD40 and HEK293T-MCAT cells were seeded on collagen-coated cover slips 24 h prior to the experiment. For complex formation Hsp70, its N-terminal domain (N70) or its C-terminal domain (C70) were preincubated with a 10-fold molar excess of peptide C-FITC for 30 min at 37° C., as described above for the biotinylated proteins. HEK293T-CD40 and HEK293T-MCAT were incubated with 0.5 μM of Hsp70, N70 or C70, preincubated with 2 mM ADP and 5 μM peptide C-FITC, or 5 μM peptide C-FITC alone for 30 min on ice. Thereafter the cells were washed three times with medium, incubated for 15 min at 37° C., and fixed, embedded in Fluoromount-G and analyzed by confocal microscopy (LSM 510, Zeiss).
Next, the binding of Hsp70-peptide complex to CD40 was studied, which results in the uptake of peptide. To this end, HEK293T-CD40 cells and HE293T-MCAT cells (not expressing CD40) were incubated with a fluorescent (FITC) derivative of peptide C for 30 min at 0° C. in the presence of ADP, with or without Hsp70 or its two domains. After removal of excess material, the cells were incubated at 37° C. for 15 min, fixed and then analyzed by fluorescence microscopy. […] (FIG. 6B, panel 1). […] Neither did HEK293T-MCAT control cells give rise to a signal under any of the conditions tested (not shown). We conclude that the specific interaction of CD40 with Hsp70-peptide complex mediates the uptake of peptide.
Details for FIG. 6. Binding of Hsp70 complex to CD40-expressing HEK293T cells induces signaling via p38 and causes peptide uptake. A. HEK293T-cells, stably transfected with cDNA encoding human CD40 or the unrelated membrane protein murine cationic amino acid transporter (MCAT) were incubated for 20 min at 37° C. with CD40L or with Hsp70, C70, N70, bacterial DnaK either in the presence of ADP or AMPPNP, or buffer alone. Thereafter cells were washed, solubilized in SDS-sample buffer, and analyzed by immunoblotting with antibodies directed against phosphorylated (active) p38. Blots were also developed with an antibody against tubulin in order to control for equal loading. B. Cells were incubated at 0° C. for 30 min with recombinant human Hsp70, N70, or C70, all in the presence FITC-labeled peptide, or with the FITC-labeled peptide alone. Thereafter cells were washed, incubated for 15 min at 37° C., and processed for fluorescence microscopy. Upper left panel: Hsp70, upper right panel: FITC-labeled peptide alone, lower left panel: C70, lower right panel: N70. Only cells stably transfected with CD40 are shown. Cell boundaries are emphasized with broken lines.

[2] = molecular target: T2, exoplasmic domain of human CD40 (GST-CD40) (Homo sapiens, UniProt P25942); test: GST-CD40 binding and competition assay with recombinant Hsp70 and its domains
T2 construct: The cDNA for the exoplasmic domain of CD40 (amino acids 20-212); made in house; host or cells: E. coli, pGEX-2T
Procedure: For binding assays with recombinant Hsp70 and its domains, 3 μM His6-Hsp70 or its His6-tagged domains were incubated with 2 mM ATP, 2 mM ADP or 2 mM ADP and 28 μM peptide C in 50 μl binding buffer (10 mM MOPS/KOH, pH 7.2, 150 mM KCl and 3 mM MgCl2) for 30 min at 37° C. In competition experiments binding was probed with either a 10-fold excess of Hsp70, the two domains, or DnaK, or with a 5-fold excess of Hip or Bag 1 for 10 min at 0° C. To this end, Hsp70, N70, C70 and DnaK were preincubated with ADP, ATP and peptide C as described above. For comparison of CD40 binding of Hsp70 and its N-terminal domain, Hsp70 was preincubated in the presence or absence (mock treatment) of a 30-fold molar excess of peptide C. 3 μM of GST or GST-CD40 was added to the samples and incubated for 20 min at 16° C. For titration of peptide C, 5- to 50-fold excess of peptide C (15-150 μM) was added to the preincubation of Hsp70. Thereafter the samples were combined with 20 μl of 1% BSA-treated Glutathione Sepharose 4 Fast Flow and incubated in the presence of 2 mM DTT for another 20 min at 16° C. Unbound proteins were removed by washing the beads three times with 1 ml PBS, and immobilized proteins eluted with 30 μl elution buffer for 20 min at 22° C. 10 μl of the eluates were subjected to SDS-PAGE and analyzed by immunoblotting using a Penta-His-antibody (Quiagen). Blot signals were quantified by Quantity One (Biorad).
Details for FIG. 3. Binding of Hsp70 to CD40 is direct and depends on ADP. A. Hela-cell lysates were incubated with GST (control), or GST-CD40 in the amounts indicated. Thereafter samples were affinity purified on glutathione-Sepharose as outlined in Experimental Procedures, subjected to SDS-PAGE and analyzed by immunoblotting with antibodies directed against Hsc70 and Hsp70 (upper lanes), and against Hsp90 (lower lanes). B. Human recombinant His6-tagged Hsp70 was incubated with ATP, ADP, or an excess of peptide C, followed by addition of GST-CD40 or GST alone. After affinity purification samples were analyzed by immunoblotting as described in A, using antibodies directed against the His6-tag. C. Recombinant human His6-tagged Hsp70 was incubated with peptide C, either in the presence or absence of ADP. The reactions were then incubated with ANA1-cell lysates as described in Experimental Procedures. Protein bound to Hsp70 was analyzed by affinity purification on Ni-NTA-agarose and immunoblotting with antibodies directed against CD40.
Details for FIG. 4. Hsp70 binding to CD40 is mediated by the N-terminal ATPase domain and is competed by Hip. A. Human His6-tagged Hsp70, its N- or C-terminal domains, or recombinant bacterial DnaK was incubated either with GST-CD40, or with GST. B. Recombinant DnaK was incubated with ATP, ADP, or an excess of peptide C, followed by addition of GST-CD40 or GST alone. C. His6-tagged N-terminal domain of Hsp70 (N70) was incubated in the presence of ATP or ADP, followed by incubation with a 10-fold molar excess of Hsp70 in the presence of ADP or ATP. D: Recombinant human His6-tagged Hsp70 protein was incubated with a 5-fold molar excess of either recombinant Hip protein or Bag-1, and with GST-CD40 or GST as a control. Bound protein was analyzed after affinity purification on glutathione-Sepharose by immunoblotting with an antibody directed against the N-terminal His6-tags or with an antibody directed against DnaK.
Details for FIG. 5. Peptide substrate stimulates Hsp70 binding to CD40. A. His6-tagged Hsp70 was incubated with increasing concentrations of peptide C as indicated in the Figure, and binding to GST-CD40 analyzed by immunoblotting with antibodies directed against the His6-tag. The lower panel is a quantitation of the data. B. Equivalent concentrations (3 μM) of His6-tagged Hsp70 (in the presence of a 30-fold molar excess of peptide C) or His6-tagged N70 was incubated with GST-CD40, and bound protein was analyzed as described above.

human CD40 [3] = molecular target: T1, human CD40; test: Binding to Cos-7 cells transiently transfected with human CD40 cDNA, fluorescence microscopy; type: cell-based; conditions: 250 nM biotinylated protein, 30 min at 0° C.
Procedure: Cell culture and fluorescence microscopy. The murine macrophage cell line ANA1 was kindly provided by H. Wagner (Munich, Germany). ANA-1 cells were cultured in VLE-RPMI 1640 (Biochrom), supplemented with 10% FCS, 2 mM L-glutamine and antibiotics. For fluorescence microscopy, ANA1 cells were either stimulated with LPS (20 μg/ml, Sigma, Germany), or kept in an LPS-free medium (mock treatment) for 7 h. After stimulation, cells were harvested and incubated with 100 nM biotinylated Hsp70, biotinylated GST, or Hsp70/peptide C-biotin complex for 30 min at 0° C. in VLE-RPMI 1640. After incubation cells were processed for staining with streptavidin-TRITC (Sigma, Germany), fixed with paraformaldehyde and analyzed by fluorescence microscopy (Axiovert 35, Zeiss) as described (Sondermann et al., 2000). […] Twenty-four h post-transfection cells were incubated with 250 nM biotinylated Hsp70, biotinylated GST or Hsp70/peptide C-biotin complex for 30 min at 0° C. in DMEM, fixed, stained with streptavidin-TRITC (Sigma, Germany), and analyzed by fluorescence microscopy as described (Sondermann et al., 2000, idem). […] Stably transfected cell lines were analyzed by immunoblotting for CD40 expression using an anti-CD40 antibody (CSA180, Stressgen). […]
Mock-treated and LPS-stimulated ANA-1 cells were analyzed for their expression of CD40. […]

Hsp70 = conditions: Greene et al., 1995; read-out: affinity of peptide C for Hsp70; cited from earlier work
[4] = molecular target: T2, exoplasmic domain of human CD40 (GST-CD40); test: GST-CD40 pull-down of endogenous heat shock proteins from Hela cell lysate; type: binding; conditions: 80 or 400 pmol GST-CD40, immunoblot
Procedure: Binding assays with GST-CD40. For binding of endogenous Hsp70 and Hsc70 from Hela cell lysate, Hela cells were lysed as described above and centrifuged at 100,000 g at 4° C. for 1 h. 20 μl bed volume of Glutathione Sepharose 4 Fast Flow (Amersham Pharmacia) per sample were preincubated with 80 pmol or 400 pmol of GST or GST-CD40 fusion protein in 50 μl binding buffer. Unbound protein was removed by washing three times with PBS. The beads were treated with 1% BSA/PBS to avoid non-specific binding, and than incubated with 150 μl of Hela cell lysate in the presence of 2 mM DTT for 20 min at 16° C. […] 10 μl of the eluates was subjected to SDS-PAGE and analyzed by immunoblotting using an anti-Hsc/Hsp70 antibody and an anti-Hsp90: antibody (SPA822 and SPA835, Stressgen). […]
Details for FIG. 3. […] Thereafter samples were affinity purified on glutathione-Sepharose as outlined in Experimental Procedures, subjected to SDS-PAGE and analyzed by immunoblotting with antibodies directed against Hsc70 and Hsp70 (upper lanes), and against Hsp90 (lower lanes). […] After affinity purification samples were analyzed by immunoblotting as described in A, using antibodies directed against the His6-tag. […] Protein bound to Hsp70 was analyzed by affinity purification on Ni-NTA-agarose and immunoblotting with antibodies directed against CD40.

T1 sequence (P25942 21-277): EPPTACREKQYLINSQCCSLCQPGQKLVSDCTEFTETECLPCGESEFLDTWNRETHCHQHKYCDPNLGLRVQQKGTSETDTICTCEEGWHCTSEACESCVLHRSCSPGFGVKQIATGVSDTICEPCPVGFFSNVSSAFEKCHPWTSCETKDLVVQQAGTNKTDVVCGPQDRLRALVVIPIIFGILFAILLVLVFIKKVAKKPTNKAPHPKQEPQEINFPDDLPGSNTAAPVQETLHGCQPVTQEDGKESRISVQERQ
T2 sequence (P25942 20-212): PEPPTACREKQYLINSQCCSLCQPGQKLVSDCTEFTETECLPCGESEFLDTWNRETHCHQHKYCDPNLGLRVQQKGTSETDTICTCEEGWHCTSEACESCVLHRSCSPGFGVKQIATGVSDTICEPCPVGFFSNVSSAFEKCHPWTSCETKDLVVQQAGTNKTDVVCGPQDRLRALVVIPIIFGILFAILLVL

Substance: C70: Recombinant C-terminal peptide-binding domain of human Hsp70, residues 382-641
uptake of fluorescent (FITC) peptide C into HEK293T-CD40 cells (human CD40 [1]): did not result in a peptide signal above background
competition for the binding of full-length Hsp70 to CD40 ([2]; ADP, 5-fold molar excess of competitor): neither the C-terminal Hsp70 domain (C70) nor DnaK had a significant effect on binding

binding to CD40-transfected Cos-7 cells (human CD40 [3]): no binding above background
effect of peptide C on binding of Hsp70-ADP to CD40 ([2]; 5- to 50-fold excess of peptide C (15-150 μM), ADP): increased dramatically
competition of peptide C with the Hsp70-CD40 interaction ([2]; molar excess of peptide C over Hsp70, ADP): did not compete with the interaction
ka of the saturable effect of peptide on Hsp70-ADP binding to CD40 ([2]; titration of peptide C, 3 μM Hsp70, ADP): ~30 µM
Substance: GCEVFGLGWRSYKH [peptide C, reference compound]
Kd (Hsp70): 5 to 10 µM
effect of peptide C on binding of DnaK to CD40 ([2]; 10-fold molar excess of peptide C): almost completely abolishes the binding of DnaK to CD40

Substance: Hsc70: Endogenous mammalian Hsp70 family member in Hela-cell lysates
binding to GST-CD40 from Hela-cell lysates [4]: bound to GST-CD40 in a concentration dependent manner

uptake of fluorescent (FITC) peptide C into HEK293T-CD40 cells (human CD40 [1]): No staining above background
Substance: FITC-GCEVFGLGWRSYKH ({FITC}-GCEVFGLGWRSYKH) [reference compound]
